# Results from patent US12691112B2, “FGFR tyrosine kinase inhibitors for the treatment of urothelial carcinoma” (Janssen Pharmaceutica NV, priority 2019, dated 2026).
# Settings: human, in vivo
compound,measurement,value
"COc1cc(OC)cc(N(CCNC(C)C)c2ccc3ncc(-c4cnn(C)c4)nc3c2)c1 [erdafitinib, N-(3,5-dimethoxy-phenyl)-N′-(1-methylethyl)-N-[3-(1-methyl-1H-pyrazol-4-yl)quinoxalin-6-yl]ethane-1,2-diamine]",circulating metabolites in plasma,no circulating metabolites
same,exposure (Cmax and AUC) versus dose,increased proportionally
same,mean total apparent clearance (CL/F),0.362 L/h
same,pharmacokinetics in specific populations,No clinically meaningful trends
same,time to steady state,2 weeks
